Experimental findings from US20250381243A1, “HETEROCYCLES AND USES THEREOF” (Kumquat Biosciences Inc., priority 2022, published 2025) are described below.

Molecules are shown by their SMILES. Where two headings read alike, the source gives them in different places. A value given as a limit tells only on which side of the number the result lay.

For the experiment, the system named is A549 cells. In words: Cell proliferation assay (CellTiter-Glo), cells with K-Ras G12S mutation. It counts as cell-based. Conditions: Homo sapiens, read-out: Inhibition of A549 Cells (IC50). Put shortly: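 A549 (K-Ras G12S) cells in RPMI-1640 with 10% heat-inactivated FBS, plated in standard or ultra-low-attachment 384-well format, treated next day with a dilution series (e.g., 10-point, 3-fold). Viability read by CellTiter-Glo luminescence about 6 days later; IC50 from four-parameter fit.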

Usually IC50 stands for the concentration needed to halve the response being measured. Take `C[C@H]1CC[C@]2(CN(C(=O)n3cnc(F)n3)[C@@H]2C2(C)CC2)CN1c1nc(OC[C@]23CCCN2CC(=C(F)F)C3)nc2c(F)c(-c3ccc(F)c4sc(N)c(C#N)c34)c(Cl)cc12` [Compound 223, 2-amino-4-(6-chloro-2-(((R)-2-(difluoromethylene)tetrahydro-1H-pyrrolizin-7a(5H)-yl)methoxy)-8-fluoro-4-((1R,4R,7S)-2-(3-fluoro-1H-1,2,4-triazole-1-carbonyl)-7-methyl-1-(1-methylcyclopropyl)-2,6-diazaspiro[3.5]nonan-6-yl)quinazolin-7-yl)-7-fluorobenzo[b]thiophene-3-carbonitrile]: the IC50 (≤500 nM) was at most 500 nM.
The same measure, in the same setting: as for `CC(C)[C@H]1N(C(=O)n2cnc(O)n2)C[C@]12CCCCN(c1nc(OC[C@@]34CCCN3C[C@H](F)C4)nc3c(F)c(-c4ccc(F)c5sc(N)c(C#N)c45)c(Cl)cc13)C2` [Compound 224, 2-amino-4-(6-chloro-8-fluoro-2-(((2R,7aS)-2-fluorotetrahydro-1H-pyrrolizin-7a(5H)-yl)methoxy)-4-((1R,4R)-2-(3-hydroxy-1H-1,2,4-triazole-1-carbonyl)-1-isopropyl-2,6-diazaspiro[3.6]decan-6-yl)quinazolin-7-yl)-7-fluorobenzo[b]thiophene-3-carbonitrile], the figure is at most 500 nM.
The same measure, in the same setting: as for `CC(C)[C@H]1N(C(=O)n2cnc(C(F)F)n2)C[C@]12CCCCN(c1nc(OC[C@@]34CCCN3C[C@H](F)C4)nc3c(F)c(-c4ccc(F)c5sc(N)c(C#N)c45)c(Cl)cc13)C2` [Compound 226, 2-amino-4-(6-chloro-4-((1R,4R)-2-(3-(difluoromethyl)-1H-1,2,4-triazole-1-carbonyl)-1-isopropyl-2,6-diazaspiro[3.6]decan-6-yl)-8-fluoro-2-(((2R,7aS)-2-fluorotetrahydro-1H-pyrrolizin-7a(5H)-yl)methoxy)quinazolin-7-yl)-7-fluorobenzo[b]thiophene-3-carbonitrile], the figure is at most 500 nM; as for `CC(C)[C@H]1N(C(=O)n2cnc(C#N)n2)C[C@]12CC[C@H](C)N(c1nc(OC[C@@]34CCCN3C[C@H](F)C4)nc3c(F)c(-c4ccc(F)c5sc(N)c(C#N)c45)c(Cl)cc13)C2` [Compound 227, 1-((1R,4R,7S)-6-(7-(2-amino-3-cyano-7-fluorobenzo[b]thiophen-4-yl)-6-chloro-8-fluoro-2-(((2R,7aS)-2-fluorotetrahydro-1H-pyrrolizin-7a(5H)-yl)methoxy)quinazolin-4-yl)-1-isopropyl-7-methyl-2,6-diazaspiro[3.5]nonane-2-carbonyl)-1H-1,2,4-triazole-3-carbonitrile], at most 500 nM; as for `CN(C[C@@H]1CN(C(=O)n2cnc(C(F)F)n2)[C@@H]1C(C)(C)C)c1nc(OC[C@@]23CCCN2C[C@H](F)C3)nc2c(F)c(-c3ccc(F)c4sc(N)c(C#N)c34)c(Cl)cc12` [Compound 228, 2-amino-4-(4-((((2S,3R)-2-(tert-butyl)-1-(3-(difluoromethyl)-1H-1,2,4-triazole-1-carbonyl)azetidin-3-yl)methyl)(methyl)amino)-6-chloro-8-fluoro-2-(((2R,7aS)-2-fluorotetrahydro-1H-pyrrolizin-7a(5H)-yl)methoxy)quinazolin-7-yl)-7-fluorobenzo[b]thiophene-3-carbonitrile], at most 500 nM.
Same read-out and setting: as for `C[C@H]1CC[C@]2(CN(C(=O)n3cnc(C(F)F)n3)[C@@H]2C2CCC2)CN1c1nc(OC[C@@]23CCCN2C[C@H](F)C3)nc2c(F)c(-c3ccc(F)c4sc(N)c(C#N)c34)c(Cl)cc12` [Compound 229, 2-amino-4-(6-chloro-4-((1R,4R,7S)-1-cyclobutyl-2-(3-(difluoromethyl)-1H-1,2,4-triazole-1-carbonyl)-7-methyl-2,6-diazaspiro[3.5]nonan-6-yl)-8-fluoro-2-(((2R,7aS)-2-fluorotetrahydro-1H-pyrrolizin-7a(5H)-yl)methoxy)quinazolin-7-yl)-7-fluorobenzo[b]thiophene-3-carbonitrile], the figure is at most 500 nM.
Regarding `CC(C)[C@@H]1[C@H](CN(C)c2nc(OC[C@@]34CCCN3C[C@H](F)C4)nc3c(F)c(-c4ccc(F)c5sc(N)c(C#N)c45)c(Cl)cc23)CN1C(=O)n1cnc(C(F)F)n1` [Compound 230, 2-amino-4-(6-chloro-4-((((2R,3R)-1-(3-(difluoromethyl)-1H-1,2,4-triazole-1-carbonyl)-2-isopropylazetidin-3-yl)methyl)(methyl)amino)-8-fluoro-2-(((2R,7aS)-2-fluorotetrahydro-1H-pyrrolizin-7a(5H)-yl)methoxy)quinazolin-7-yl)-7-fluorobenzo[b]thiophene-3-carbonitrile], the IC50 (≤500 nM) is at most 500 nM.
As to `C[C@H]1CC[C@]2(CN(C(=O)n3cnc(C#N)n3)[C@@H]2C2(C)CC2)CN1c1nc(OC[C@@]23CCCN2C[C@H](F)C3)nc2c(F)c(-c3ccc(F)c4sc(N)c(C#N)c34)c(Cl)cc12` [Compound 232, 1-((1R,4R,7S)-6-(7-(2-amino-3-cyano-7-fluorobenzo[b]thiophen-4-yl)-6-chloro-8-fluoro-2-(((2R,7aS)-2-fluorotetrahydro-1H-pyrrolizin-7a(5H)-yl)methoxy)quinazolin-4-yl)-7-methyl-1-(1-methylcyclopropyl)-2,6-diazaspiro[3.5]nonane-2-carbonyl)-1H-1,2,4-triazole-3-carbonitrile], the half-maximal inhibitory concentration (IC50) (500 nM to 5 μM (mixed units)) lay within 500 to 5000 nM.
Regarding `CC1([C@H]2N(C(=O)n3cnc(C(F)F)n3)C[C@]23CCCN(c2nc(OC[C@@]45CCCN4C[C@H](F)C5)nc4c(F)c(-c5ccc(F)c6sc(N)c(C#N)c56)c(Cl)cc24)C3)CC1` [Compound 234, 2-amino-4-(6-chloro-4-((1R,4R)-2-(3-(difluoromethyl)-1H-1,2,4-triazole-1-carbonyl)-1-(1-methylcyclopropyl)-2,6-diazaspiro[3.5]nonan-6-yl)-8-fluoro-2-(((2R,7aS)-2-fluorotetrahydro-1H-pyrrolizin-7a(5H)-yl)methoxy)quinazolin-7-yl)-7-fluorobenzo[b]thiophene-3-carbonitrile], the IC50 (≤500 nM) is at most 500 nM.
Same read-out and setting: next, `CC(C)[C@H]1N(C(=O)n2cnc(F)n2)C[C@]12CC(CC#N)CN(c1nc(OC[C@@]34CCCN3C[C@H](F)C4)nc3c(F)c(-c4ccc(F)c5sc(N)c(C#N)c45)c(Cl)cc13)C2` (stereo partly drawn) [Compound 235, 2-amino-4-(6-chloro-4-((1R,4R)-8-(cyanomethyl)-2-(3-fluoro-1H-1,2,4-triazole-1-carbonyl)-1-isopropyl-2,6-diazaspiro[3.5]nonan-6-yl)-8-fluoro-2-(((2R,7aS)-2-fluorotetrahydro-1H-pyrrolizin-7a(5H)-yl)methoxy)quinazolin-7-yl)-7-fluorobenzo[b]thiophene-3-carbonitrile]: at most 500 nM.
On the same count and under the same terms, as for `CN(C[C@@H]1CN(C(=O)n2cnc(C(F)F)n2)[C@@H]1C1CCC1)c1nc(OC[C@@]23CCCN2C[C@H](F)C3)nc2c(F)c(-c3ccc(F)c4sc(N)c(C#N)c34)c(Cl)cc12` [Compound 236, 2-amino-4-(6-chloro-4-((((2R,3R)-2-cyclobutyl-1-(3-(difluoromethyl)-1H-1,2,4-triazole-1-carbonyl)azetidin-3-yl)methyl)(methyl)amino)-8-fluoro-2-(((2R,7aS)-2-fluorotetrahydro-1H-pyrrolizin-7a(5H)-yl)methoxy)quinazolin-7-yl)-7-fluorobenzo[b]thiophene-3-carbonitrile], the figure is at most 500 nM; as for `CN(C[C@@H]1CN(C(=O)n2cnc(C#N)n2)[C@@H]1C1(C)CC1)c1nc(OC[C@@]23CCCN2C[C@H](F)C3)nc2c(F)c(-c3ccc(F)c4sc(N)c(C#N)c34)c(Cl)cc12` [Compound 237, 1-((2S,3R)-3-(((7-(2-amino-3-cyano-7-fluorobenzo[b]thiophen-4-yl)-6-chloro-8-fluoro-2-(((2R,7aS)-2-fluorotetrahydro-1H-pyrrolizin-7a(5H)-yl)methoxy)quinazolin-4-yl)(methyl)amino)methyl)-2-(1-methylcyclopropyl)azetidine-1-carbonyl)-1H-1,2,4-triazole-3-carbonitrile], at most 500 nM.
